This note sets out measurements from patent publication US8735411B2, “Macrocyclic benzofused pyrimidine derivatives” (AbbVie Inc., priority 2006, dated 2014).

The target in this assay is histamine H4 receptor (Homo sapiens, UniProt Q9H3N8). The assay can be described thus: In vitro histamine H4 potency in FLIPR (Ca2+ flux, HEK-293 cells coexpressing Gαqi5). In kind it is cell-based. Further details: expressed in transfected cells. The settings on record: Kb for antagonists and inverse agonists, EC50 for partial agonists. From the text: There are many methods available to show the effectiveness of compounds as histamine H4 receptor ligands. Histamine H4 receptors from mammalian species have been cloned. Methods to clone, express, and assess the potency and functional activity of such cloned genes are well known to those skilled in the art of molecular biology. […] Before testing, cells are loaded with a Ca^+2 sensitive fluorescent dye, in this case Fluo-4. In the case of partial agonist or agonist ligands, addition of compound to the cells leads to the increase in intracellular Ca^+2 which is detected by FLIPR (Fluorescence Imaging Plate Reader; Molecular Devices, Sunnyvale, Calif.) technology. […] The fluorescence intensities measured before addition of the test compound are subtracted from the fluorescence intensities at later time points. Peak response values determined at each concentration of ligand are expressed as a percentage of the response obtained with the full agonist histamine. Concentration versus response data are analyzed to obtain compound potency as Kb values for antagonists and inverse agonists and as EC50 values for partial agonists.
Sequence of histamine H4 receptor (Q9H3N8 whole entry): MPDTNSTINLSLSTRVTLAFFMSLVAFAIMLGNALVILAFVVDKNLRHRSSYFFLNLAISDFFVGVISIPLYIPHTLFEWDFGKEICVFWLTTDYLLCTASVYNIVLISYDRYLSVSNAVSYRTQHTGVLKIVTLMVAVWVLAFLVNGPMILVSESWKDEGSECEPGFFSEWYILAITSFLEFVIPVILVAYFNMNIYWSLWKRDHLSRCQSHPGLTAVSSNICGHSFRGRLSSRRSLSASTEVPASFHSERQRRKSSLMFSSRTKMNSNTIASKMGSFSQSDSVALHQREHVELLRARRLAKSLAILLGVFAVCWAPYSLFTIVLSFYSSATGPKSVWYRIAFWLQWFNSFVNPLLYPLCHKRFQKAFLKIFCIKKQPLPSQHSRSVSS
On the technique in general: Calcium assays in cells follow changes in intracellular calcium, usually with a dye or a luminescent sensor.
With `O=C(Nc1nc2c(c(N3CCNCC3)n1)CCCc1ccccc1-2)c1ccccc1` [Example 84, N-(4-Piperazin-1-yl-6,7-dihydro-5H-benzo[6,7]cyclohepta[1,2-d]pyrimidin-2-yl)-benzamide], the Potency was 3388 nM.

In the case of `Nc1nc2c(c(N3CCNCC3)n1)SCCc1ccccc1-2` [Example 109, 4-Piperazin-1-yl-6,7-dihydro-5-thia-1,3-diaza-dibenzo[a,c]cyclohepten-2-ylamine], the Potency is reported as 87 nM.

The compound “[1-(6,7-Dihydro-5H-benzo[6,7]cyclohepta[1,2-d]pyrimidin-4-yl)-azetidin-3-yl]-amine [Example 125]” had a Potency of 631 nM. As for `CNC1CN(c2nc(N)nc3c2CC(C)c2ccccc2-3)C1` (stereo not drawn) [Example 2, 6-Methyl-4-(3-methylamino-azetidin-1-yl)-5,6-dihydro-benzo[h]quinazolin-2-ylamine], the figure is 44 nM. With `CN[C@@H]1CCN(c2nc(N)nc3c2CCCCCc2ccccc2-3)C1` [Example 23, 4-(3-(R)-Methylamino-pyrrolidin-1-yl)-6,7,8,9-tetrahydro-5H-1,3-diaza-dibenzo[a,c]cyclononen-2-ylamine] the figure was 56 nM; with `Nc1nc2c(c(N3CC4CCCNC4C3)n1)CCCc1ccc(F)cc1-2` (stereo not drawn) [Example 115, 10-fluoro-4-octahydro-6H-pyrrolo[3,4-b]pyridin-6-yl-6,7-dihydro-5H-benzo[6,7]cyclohepta[1,2-d]pyrimidin-2-amine], 32 nM; with `Nc1nc2c(c(N3C[C@@H]4C[C@H]3CN4)n1)CCCc1ccccc1-2` [Example 17, 4-((1S,4S)-2,5-Diaza-bicyclo[2.2.1]hept-2-yl)-6,7-dihydro-5H-benzo[6,7]cyclohepta[1,2-d]pyrimidin-2-ylamine], 912 nM. Take `CNC1CN(c2nc(N)nc3c2CCCCCc2ccccc2-3)C1` [Example 26, 4-(3-Methylamino-azetidin-1-yl)-6,7,8,9-tetrahydro-5H-1,3-diaza-dibenzo[a,c]cyclononen-2-ylamine]: the Potency turned out to be 115 nM. Compound `Nc1nc2c(c(N3C[C@@H]4CN[C@@H]4C3)n1)CCCc1ccccc1-2` [Example 120, (1S,5S)-4-(3,6-Diaza-bicyclo[3.2.0]hept-3-yl)-6,7-dihydro-5H-benzo[6,7]cyclohepta[1,2-d]pyrimidin-2-ylamine] came in with a Potency of 603 nM. Compound `c1ccc2c(c1)CCCc1c-2nc(NCCc2c[nH]cn2)nc1N1CC2CCCNC2C1` (stereo not drawn) [Example 127, 6-(2-(1H-imidazol-4-yl)ethylamino-6,7-dihydro-5H-benzo[6,7]cyclohepta[1,2-d]pyrimidin-4-yl)octahydro-1H-pyrrolo[3,4-b]pyridine] displayed a Potency of 933 nM. As for `CN(C)CCOc1nc(N)nc2c1CCCc1ccccc1-2` [Example 74, 4-(2-Dimethylamino-ethoxy)-6,7-dihydro-5H-benzo[6,7]cyclohepta[1,2-d]pyrimidin-2-ylamine], the figure is 219 nM; as for `Nc1nc2c(c(N3CCC4(CCCCN4)CC3)n1)CCCc1ccccc1-2` [Example 75, 4-(1,9-Diaza-spiro[5.5]undec-9-yl)-6,7-dihydro-5H-benzo[6,7]cyclohepta[1,2-d]pyrimidin-2-ylamine], 4898 nM; as for `CN1[C@@H]2CC[C@H]1CC(Nc1nc(N)nc3c1CCCc1ccccc1-3)C2` (stereo partly drawn) [Example 66, N^4-[(1R,5S)-8-methyl-8-azabicyclo[3.2.1]oct-3-yl]-6,7-dihydro-5H-benzo[6,7]cyclohepta[1,2-d]pyrimidine-2,4-diamine], 17 nM. For `Nc1nc(NCCC2CCN2)c2c(n1)-c1ccccc1CCC2` (stereo not drawn) [Example 63, N^4-(2-azetidin-2-ylethyl)-6,7-dihydro-5H-benzo[6,7]cyclohepta[1,2-d]pyrimidine-2,4-diamine], the Potency is given as 269 nM.

For `NCCCC(=O)Nc1nc2c(c(N3CCNCC3)n1)CCCc1ccccc1-2` [Example 91, 4-Amino-N-(4-piperazin-1-yl-6,7-dihydro-5H-benzo[6,7]cyclohepta[1,2-d]pyrimidin-2-yl)-butyramide], the Potency was determined as 550 nM. As to `CN(C)CC(=O)Nc1nc2c(c(N3CCNCC3)n1)CCCc1ccccc1-2` [Example 87, 2-Dimethylamino-N-(4-piperazin-1-yl-6,7-dihydro-5H-benzo[6,7]cyclohepta[1,2-d]pyrimidin-2-yl)-acetamide], the Potency was determined as 174 nM. As for `NCC(=O)Nc1nc2c(c(N3CCNCC3)n1)CCCc1ccccc1-2` [Example 89, 2-Amino-N-(4-piperazin-1-yl-6,7-dihydro-5H-benzo[6,7]cyclohepta[1,2-d]pyrimidin-2-yl)-acetamide], the figure is 89 nM; as for `Nc1nc2c(c(N3CC[C@@H](N)C3)n1)CCCCCc1ccccc1-2` [Example 24, 4-((R)-3-Amino-pyrrolidin-1-yl)-6,7,8,9-tetrahydro-5H-1,3-diaza-dibenzo[a,c]cyclononen-2-ylamine], 148 nM; as for `Nc1nc2c(c(N3CC4CCCNC4C3)n1)CCCc1ccccc1-2` (stereo not drawn) [Example 59, 4-octahydro-6H-pyrrolo[3,4-b]pyridin-6-yl-6,7-dihydro-5H-benzo[6,7]cyclohepta[1,2-d]pyrimidin-2-amine], 44 nM. With `CNC1CN(c2nc(N)nc3c2CCSc2ccccc2-3)C1` [Example 33, 4-(3-Methylamino-azetidin-1-yl)-5,6-dihydro-7-thia-1,3-diaza-dibenzo[a,c]cyclohepten-2-ylamine], the Potency is reported as 13 nM. As for `Nc1nc2c(c(N3CC4CCNCC4C3)n1)CCCc1ccccc1-2` (stereo not drawn) [Example 79, 4-(Octahydro-pyrrolo[3,4-c]pyridin-2-yl)-6,7-dihydro-5H-benzo[6,7]cyclohepta[1,2-d]pyrimidin-2-ylamine], the figure is 89 nM; as for `CN1CCC(Nc2nc(N)nc3c2CCCc2ccccc2-3)CC1` [Example 65, N^4-(1-methylpiperidin-4-yl)-6,7-dihydro-5H-benzo[6,7]cyclohepta[1,2-d]pyrimidine-2,4-diamine], 13 nM; as for `CN[C@@H]1CCN(c2nc(N)nc3c2CCc2ccccc2-3)C1` [Example 39, 4-(3-(R)-Methylamino-pyrrolidin-1-yl)-5,6-dihydro-benzo[h]quinazolin-2-ylamine], 22 nM.

As to `Nc1nc2c(c(N3CC4CCCNC4C3)n1)CCSc1ccccc1-2` (stereo not drawn) [Example 96, 4-(Octahydro-pyrrolo[3,4-b]pyridin-6-yl)-5,6-dihydro-7-thia-1,3-diaza-dibenzo[a,c]cyclohepten-2-ylamine], the Potency was determined as 19 nM. With `CN[C@H]1CCN(c2nc(N)nc3c2CCCc2ccccc2-3)C1` [Example 14, 4-[(3S)-3-Methylamino-pyrrolidin-1-yl]-6,7-dihydro-5H-benzo[6,7]cyclohepta[1,2-d]pyrimidin-2-ylamine] the figure was 331 nM.

Regarding `CN[C@@H]1CCN(c2nc(N)nc3c2S(=O)(=O)CCc2ccccc2-3)C1` [Example 111, 4-((R)-3-Methylamino-pyrrolidin-1-yl)-5,5-dioxo-6,7-dihydro-5H-5λ6-thia-1,3-diaza-dibenzo[a,c]cyclohepten-2-ylamine], the Potency turned out to be 1413 nM. `CN1CCN(c2nc(N)nc3c2OCc2ccccc2-3)CC1` [Example 41, 1-(4-Methyl-piperazin-1-yl)-9H-10-oxa-2,4-diaza-phenanthren-3-ylamine] showed a Potency of 50 nM.
